Source: publication PMC11188305, “Reproductive and fetal toxicity studies of histamine H3 receptor antagonist DL76 used in mice to prevent maximal electroshock-induced seizure” (Frontiers in Pharmacology, 2024)

System: C57/B6 mouse embryos
Test: Reproductive studies: maternal, fetal and gross/visceral malformation observations after treatment on GD-8 or GD-13
Type: in vivo
Settings: for Placental weight, IUGR −1SD / Placental weight, IUGR −2SD: fraction (percentage); for Fetal weight, IUGR −1SD / Fetal weight, IUGR −2SD: fraction of fetuses (percentage); for Number of female embryos / Number of male embryos: number (percentage); for Exomphalos / Eye open / Kinky tail / Left/right kidney hypo/descended / Mandible hypoplasia / Maxilla hypoplasia / Microtia/low set microtia / Undescended testis: number of embryos (percentage); for Live fetus/litter / Resorption/litter: parentheses contain percentages
Protocol: Reproductive studies were conducted in adult female mice, averaging 30 gm in weight and 6 weeks in age ([Padmanabhan et al., 2006]; [Bastaki et al., 2018]). Following successful mating, indicated by vaginal plug observation, the plug-positive day was considered gestation day 0 (GD-0). DL76 was administered at various doses (7.5 mg/kg, 15 mg/kg, 30 mg/kg, and 60 mg/kg) through single i.p. injections and three 15 mg/kg injections in 1 day to mouse groups on GD-8 and GD-13 (Tables 1, 2). The control group was injected with normal saline. Appropriate formation of different organs occurs in specific periods of the development of the mouse. These two periods were selected because GD-8 is known to be a critical period for the induction of neural tube defects, craniofacial malformations, and the development of other organs, whereas on GD-13, the retina and other parts are being formed, and most other organs have been formed. The number of implantations, fetal deaths, and resorptions was recorded. Fetal and placental weights were documented separately. After blotting dry, the fetuses were weighed and fixed in 95% ethanol. The reproductive toxicological effects of DL76 were assessed by observing gross and visceral malformations, following [Sterz and Lehmann (1985)], [Abdulrazzaq et al. (1997)], [Padmanabhan et al. (2003)], and [Padmanabhan et al. (2006)].
Deformities of the embryos were identified according to a modified method of [Sterz and Lehmann (1985)], [Abdulrazzaq et al. (1997)], and [Bass et al. (2020)]. Accordingly, the embryos were removed from the 95% ethanol, and the lower part of the abdomen was cut using a razor blade. All organs were checked for abnormalities with a stereo dissecting microscope, and finally, the organs were removed by using forceps.
Statistical analyses employed SPSS 26.0 (IBM Middle East, Dubai, UAE). Data were presented as means ± SEM. […] Fetal abnormality data were presented as counts and percentages. Fisher’s exact test compared the percentages of abnormalities between the control group (saline) and the different dose groups. All tests were two-tailed, and significance was set at p < 0.05.

CC(C)(C)c1ccc(OCCCN2CCCCC2)cc1 [DL76, 1-(3-(4-tert-butyl-phenoxy)propyl) piperidine]
Fetal weight/Litter (g) (Mean ± SD) (7.5 mg/kg i.p. on GD-8): 1.143 ± 0.107 g
Fetuses/litter (7.5 mg/kg i.p. on GD-8): 7.714 ± 1.890
Placental weight/Litter (g) (mean ± SD) (7.5 mg/kg i.p. on GD-8): 0.109 ± 0.11 g
Placental weight, IUGR −1SD (7.5 mg/kg i.p. on GD-8): 0
Placental weight, IUGR −2SD (7.5 mg/kg i.p. on GD-8): 0
Fetal weight, IUGR −1SD (7.5 mg/kg i.p. on GD-8): 0
Fetal weight, IUGR −2SD (7.5 mg/kg i.p. on GD-8): 0
Number of female embryos (7.5 mg/kg i.p. on GD-8): 19 (43.2)
Number of male embryos (7.5 mg/kg i.p. on GD-8): 25 (56.8)
Exomphalos (7.5 mg/kg i.p. on GD-8): 0
Eye open (7.5 mg/kg i.p. on GD-8): 2 (4.5)
Kinky tail (7.5 mg/kg i.p. on GD-8): 0
Left/right kidney hypo/descended (7.5 mg/kg i.p. on GD-8): 1 (2.3)
Mandible hypoplasia (7.5 mg/kg i.p. on GD-8): 3 (6.8)
Maxilla hypoplasia (7.5 mg/kg i.p. on GD-8): 3 (6.8)
Microtia/low set microtia (7.5 mg/kg i.p. on GD-8): 2 (4.5)
Undescended testis (7.5 mg/kg i.p. on GD-8): 2 (4.5)
Live fetus/litter (7.5 mg/kg i.p. on GD-8): 6.289 (81.48)
Resorption/litter (7.5 mg/kg i.p. on GD-8): 1.429 (18.51)
Fetal weight Litter (g) (Mean ± SD) (7.5 mg/kg i.p. on GD-13): 1.018 ± 0.103 g
Fetuses/litter (7.5 mg/kg i.p. on GD-13): 8.000 ± 1.291
Placental weight/Litter (g) (mean ± SD) (7.5 mg/kg i.p. on GD-13): 0.105 ± 0.011 g
Placental weight, IUGR −2SD (7.5 mg/kg i.p. on GD-13): 0
Fetal weight, IUGR −2SD (7.5 mg/kg i.p. on GD-13): 0
Number of female embryos (7.5 mg/kg i.p. on GD-13): 27 (54.0)
Number of male embryos (7.5 mg/kg i.p. on GD-13): 23 (46.0)
Exomphalos (7.5 mg/kg i.p. on GD-13): 0
Eye open (7.5 mg/kg i.p. on GD-13): 3 (6.0)
Kinky tail (7.5 mg/kg i.p. on GD-13): 0
Left/right kidney hypo/descended (7.5 mg/kg i.p. on GD-13): 2 (4.0)
Mandible hypoplasia (7.5 mg/kg i.p. on GD-13): 4 (8.0)
Microtia/low set microtia (7.5 mg/kg i.p. on GD-13): 2 (4.0)
Undescended testis (7.5 mg/kg i.p. on GD-13): 1 (2.0)
Maxilla hypoplasia (7.5 mg/kg i.p. on GD-13, * p < 0.05 vs control): 4 (8.0)*
Resorption/litter (7.5 mg/kg i.p. on GD-13): 0.857 (10.71)
Fetal weight/Litter (g) (Mean ± SD) (15 mg/kg i.p. on GD-8): 0.993 ± 0.106 g
Fetuses/litter (15 mg/kg i.p. on GD-8): 7.167 ± 2.317
Placental weight/Litter (g) (mean ± SD) (15 mg/kg i.p. on GD-8): 0.105 ± 0.009 g
Placental weight, IUGR −1SD (15 mg/kg i.p. on GD-8): 0
Placental weight, IUGR −2SD (15 mg/kg i.p. on GD-8): 0
Fetal weight, IUGR −1SD (15 mg/kg i.p. on GD-8): 0
Number of female embryos (15 mg/kg i.p. on GD-8): 20 (52.6)
Number of male embryos (15 mg/kg i.p. on GD-8): 18 (47.4)
Exomphalos (15 mg/kg i.p. on GD-8): 1 (2.6)
Eye open (15 mg/kg i.p. on GD-8): 3 (7.9)
Kinky tail (15 mg/kg i.p. on GD-8): 0
Left/right kidney hypo/descended (15 mg/kg i.p. on GD-8): 2 (5.3)
Mandible hypoplasia (15 mg/kg i.p. on GD-8): 3 (7.9)
Maxilla hypoplasia (15 mg/kg i.p. on GD-8): 1 (2.6)
Microtia/low set microtia (15 mg/kg i.p. on GD-8): 1 (2.6)
Undescended testis (15 mg/kg i.p. on GD-8): 0
Live fetus/litter (15 mg/kg i.p. on GD-8): 6.338 (88.37)
Resorption/litter (15 mg/kg i.p. on GD-8): 0.833 (11.62)
Fetal weight Litter (g) (Mean ± SD) (15 mg/kg i.p. on GD-13): 0.998 ± 0.063 g
Fetuses/litter (15 mg/kg i.p. on GD-13): 7.571 ± 1.272
Placental weight/Litter (g) (mean ± SD) (15 mg/kg i.p. on GD-13): 0.113 ± 0.015 g
Placental weight, IUGR −2SD (15 mg/kg i.p. on GD-13): 0
Fetal weight, IUGR −2SD (15 mg/kg i.p. on GD-13): 0
Number of female embryos (15 mg/kg i.p. on GD-13): 18 (45.0)
Number of male embryos (15 mg/kg i.p. on GD-13): 22 (55.0)
Exomphalos (15 mg/kg i.p. on GD-13): 0
Eye open (15 mg/kg i.p. on GD-13): 2 (5.0)
Kinky tail (15 mg/kg i.p. on GD-13): 0
Left/right kidney hypo/descended (15 mg/kg i.p. on GD-13): 1 (2.5)
Mandible hypoplasia (15 mg/kg i.p. on GD-13): 4 (10.0)
Maxilla hypoplasia (15 mg/kg i.p. on GD-13): 3 (7.5)
Microtia/low set microtia (15 mg/kg i.p. on GD-13): 2 (5.0)
Undescended testis (15 mg/kg i.p. on GD-13): 1 (2.5)
Live fetus/litter (15 mg/kg i.p. on GD-13): 5.714 (75.47)
Resorption/litter (15 mg/kg i.p. on GD-13): 1.857 (24.53)
Fetal weight/Litter (g) (Mean ± SD) (30 mg/kg i.p. on GD-8): 1.004 ± 0.047 g
Fetuses/litter (30 mg/kg i.p. on GD-8): 8.429 ± 0.787
Placental weight/Litter (g) (mean ± SD) (30 mg/kg i.p. on GD-8): 0.097 ± 0.019 g
Fetal weight, IUGR −2SD (30 mg/kg i.p. on GD-8): 0
Number of female embryos (30 mg/kg i.p. on GD-8): 27 (52.9)
Number of male embryos (30 mg/kg i.p. on GD-8): 24 (47.1)
Exomphalos (30 mg/kg i.p. on GD-8): 1 (2.0)
Eye open (30 mg/kg i.p. on GD-8): 2 (3.9)
Kinky tail (30 mg/kg i.p. on GD-8): 1 (2.0)
Mandible hypoplasia (30 mg/kg i.p. on GD-8): 3 (5.9)
Microtia/low set microtia (30 mg/kg i.p. on GD-8): 2 (3.9)
Undescended testis (30 mg/kg i.p. on GD-8): 0
Maxilla hypoplasia (30 mg/kg i.p. on GD-8, * p < 0.05 vs control): 2 (3.9)*
Live fetus/litter (30 mg/kg i.p. on GD-8): 7.286 (86.44)
Resorption/litter (30 mg/kg i.p. on GD-8): 1.143 (13.56)
Fetal weight Litter (g) (Mean ± SD) (30 mg/kg i.p. on GD-13): 1.069 ± 0.082 g
Fetuses/litter (30 mg/kg i.p. on GD-13): 7.000 ± 1.155
Placental weight/Litter (g) (mean ± SD) (30 mg/kg i.p. on GD-13): 0.103 ± 0.006 g
Placental weight, IUGR −2SD (30 mg/kg i.p. on GD-13): 0
Fetal weight, IUGR −2SD (30 mg/kg i.p. on GD-13): 0
